# Reference: patent publication US7396837B2, “Antitumoral analogs of lamellarins” (Pharma Mar, S.A.U., priority 2002, dated 2008)
# How the values were obtained:
# Format in all cases: cell-based
# SKOV-3 = test: SRB colorimetric cell growth inhibition assay, SKOV-3; details: Homo sapiens; for GI50: SK-OV-3, SKOV-3, GI=growth inhibition, read-out: GI50 SKOV-3; for CC50 / IC (TGI): SK-OV-3, SKOV-3; for CC50: LC=cell killing (cytotoxic effect), read-out: LC50 SKOV-3; for IC (TGI): TGI=total growth inhibition (cytostatic effect), read-out: TGI SKOV-3
# How it was run: (§1)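 SRB colorimetric readout of cell growth/viability in 96-well format. Means ± SD from triplicate wells; GI (growth inhibition), TGI (total growth inhibition, cytostatic) and LC (cell killing, cytotoxic) parameters derived.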
# IGROV-ET = test: SRB colorimetric cell growth inhibition assay, IGROV-ET (ET-743 resistant); details: Homo sapiens, IGROV-ET; for GI50: GI=growth inhibition, read-out: GI50 IGROV-ET; for CC50: LC=cell killing (cytotoxic effect), read-out: LC50 IGROV-ET; for IC (TGI): TGI=total growth inhibition (cytostatic effect), read-out: TGI IGROV-ET
# How it was run: (§2)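 Cancer cells grown in vitro were continuously treated with compound. Cell mass was then determined by SRB staining and expressed as growth inhibition.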
# DU-145 = test: SRB colorimetric cell growth inhibition assay, DU-145; details: Homo sapiens, DU-145, DU-145; for GI50: GI=growth inhibition, read-out: GI50 DU-145; for CC50: LC=cell killing (cytotoxic effect), read-out: LC50 DU-145; for IC (TGI): TGI=total growth inhibition (cytostatic effect), read-out: TGI DU-145
# How it was run: as §2
# SK-MEL-28 = test: SRB colorimetric cell growth inhibition assay, SK-MEL-28; details: Homo sapiens, SK-MEL-28, MEL-28; for GI50: GI=growth inhibition, read-out: GI50 MEL-28; for CC50: LC=cell killing (cytotoxic effect), read-out: LC50 MEL-28; for IC (TGI): TGI=total growth inhibition (cytostatic effect), read-out: TGI MEL-28
# How it was run: as §2
# HT-29 = test: SRB colorimetric cell growth inhibition assay, HT-29; details: Homo sapiens, HT-29, HT-29; for GI50: GI=growth inhibition, read-out: GI50 HT-29; for CC50: cell killing (cytotoxic effect), read-out: LC50 HT-29; for IC (TGI): total growth inhibition (cytostatic effect), read-out: TGI HT-29
# How it was run: as §2
# LNCaP = test: SRB colorimetric cell growth inhibition assay, LNCaP; details: Homo sapiens, LNCaP, LN-caP; for GI50: GI=growth inhibition, read-out: GI50 LN-caP; for CC50: LC=cell killing (cytotoxic effect), read-out: LC50 LN-caP; for IC (TGI): TGI=total growth inhibition (cytostatic effect), read-out: TGI LN-caP
# How it was run: as §2
# PANC-1 = test: SRB colorimetric cell growth inhibition assay, PANC-1; details: Homo sapiens, PANC-1, PANC-1; for GI50: GI=growth inhibition, read-out: GI50 PANC-1; for CC50: cell killing (cytotoxic effect), read-out: LC50 PANC-1; for IC (TGI): total growth inhibition (cytostatic effect), read-out: TGI PANC-1
# How it was run: as §2
# IGROV = test: SRB colorimetric cell growth inhibition assay, IGROV; details: Homo sapiens, IGROV; for GI50: GI=growth inhibition, read-out: GI50 IGROV; for CC50: LC=cell killing (cytotoxic effect), read-out: LC50 IGROV; for IC (TGI): TGI=total growth inhibition (cytostatic effect), read-out: TGI IGROV
# How it was run: as §2
# [1] = SRB colorimetric cell growth inhibition assay, H-MEC-1; details: human, H-MEC-1 cells, H-MEC-1; LC=cell killing (cytotoxic effect); read-out: LC50 H-MEC-1
# How it was run: as §1
# H-MEC-1 = test: as above; details: Homo sapiens, HMEC-1, H-MEC-1; for GI50: GI=growth inhibition; for IC (TGI): TGI=total growth inhibition (cytostatic effect), read-out: TGI H-MEC-1
# How it was run: as §1
# A-549 = test: SRB colorimetric cell growth inhibition assay, A-549; details: Homo sapiens, A549, A-549; for GI50: GI=growth inhibition, read-out: GI50 A-549; for CC50: cell killing (cytotoxic effect), read-out: LC50 A-549; for IC (TGI): total growth inhibition (cytostatic effect), read-out: TGI A-549
# How it was run: as §2
# K-562 = test: SRB colorimetric cell growth inhibition assay, K-562; details: Homo sapiens, K562, K-562; for GI50: GI=growth inhibition, read-out: GI50 K-562; for CC50: cell killing (cytotoxic effect), read-out: LC50 K-562; for IC (TGI): total growth inhibition (cytostatic effect), read-out: TGI K-562
# How it was run: as §2
# LoVo = test: SRB colorimetric cell growth inhibition assay, LoVo; details: Homo sapiens, LoVo; for GI50: GI=growth inhibition, read-out: GI50 LOVO; for CC50: cell killing (cytotoxic effect), read-out: LC50 LOVO; for IC (TGI): total growth inhibition (cytostatic effect), read-out: TGI LOVO
# How it was run: as §2
# LoVo-Dox = test: SRB colorimetric cell growth inhibition assay, LoVo-Dox (MDR); details: Homo sapiens, LOVO-DOX; for GI50: GI=growth inhibition, read-out: GI50 LOVO-DOX; for CC50: cell killing (cytotoxic effect), read-out: LC50 LOVO-DOX; for IC (TGI): total growth inhibition (cytostatic effect), read-out: TGI LOVO-DOX
# How it was run: as §2
# SK-BR-3 = test: SRB colorimetric cell growth inhibition assay, SK-BR-3; details: Homo sapiens, SK-BR-3, SK-BR-3; for GI50: GI=growth inhibition, read-out: GI50 SK-BR-3; for CC50: LC=cell killing (cytotoxic effect), read-out: LC50 SK-BR-3; for IC (TGI): TGI=total growth inhibition (cytostatic effect), read-out: TGI SK-BR-3
# How it was run: as §2
compound,measurement,setting,value
COc1cc(-c2c3c4cc(OC)c(OC(C)C)cc4oc(=O)c3n3ccc4c(OC(C)C)c(OC)c(OC)c(COS(C)(=O)=O)c4c23)ccc1OC(C)C [Compound 101],GI50,SKOV-3,0.791 µM
same,CC50,SKOV-3,5.71 µM
same,IC (TGI),SKOV-3,2.34 µM
same,GI50,IGROV-ET,13.1 µM
same,CC50,IGROV-ET,13.1 µM
same,IC (TGI),IGROV-ET,13.1 µM
same,GI50,DU-145,13.1 µM
same,CC50,DU-145,13.1 µM
same,IC (TGI),DU-145,13.1 µM
same,GI50,SK-MEL-28,13.1 µM
same,CC50,SK-MEL-28,13.1 µM
same,IC (TGI),SK-MEL-28,13.1 µM
same,GI50,HT-29,13.1 µM
same,CC50,HT-29,13.1 µM
same,IC (TGI),HT-29,13.1 µM
same,GI50,LNCaP,8.25 µM
same,CC50,LNCaP,13.1 µM
same,IC (TGI),LNCaP,13.1 µM
same,GI50,PANC-1,13.1 µM
same,CC50,PANC-1,13.1 µM
same,IC (TGI),PANC-1,13.1 µM
same,GI50,IGROV,11.9 µM
same,CC50,IGROV,13.1 µM
same,IC (TGI),IGROV,13.1 µM
same,CC50,[1],10.5 µM
same,GI50,H-MEC-1,4.66 µM
same,IC (TGI),H-MEC-1,6.99 µM
same,GI50,A-549,13.1 µM
same,CC50,A-549,13.1 µM
same,IC (TGI),A-549,13.1 µM
same,GI50,K-562,2.19 µM
same,CC50,K-562,5.73 µM
same,IC (TGI),K-562,3.53 µM
same,GI50,LoVo,13.1 µM
same,CC50,LoVo,13.1 µM
same,IC (TGI),LoVo,13.1 µM
same,GI50,LoVo-Dox,13.1 µM
same,CC50,LoVo-Dox,13.1 µM
same,IC (TGI),LoVo-Dox,13.1 µM
same,GI50,SK-BR-3,13.1 µM
same,CC50,SK-BR-3,13.1 µM
same,IC (TGI),SK-BR-3,13.1 µM
COc1cc(-c2c3n(c4c(=O)oc5cc(OC(=O)[C@@H](N)Cc6ccccc6)c(OC)cc5c24)CCc2cc(OC(=O)[C@@H](N)Cc4ccccc4)c(OC)cc2-3)ccc1OC(=O)[C@@H](N)Cc1ccccc1 [Compound 115],GI50,SKOV-3,1.1 µM
same,CC50,SKOV-3,5.13 µM
same,IC (TGI),SKOV-3,2.38 µM
same,GI50,IGROV-ET,1.7 µM
same,CC50,IGROV-ET,7.78 µM
same,IC (TGI),IGROV-ET,5.38 µM
same,GI50,DU-145,1.63 µM
same,CC50,DU-145,7.78 µM
same,IC (TGI),DU-145,4.29 µM
same,GI50,SK-MEL-28,1.45 µM
same,CC50,SK-MEL-28,4.83 µM
same,IC (TGI),SK-MEL-28,2.65 µM
same,GI50,HT-29,2.92 µM
same,CC50,HT-29,7.78 µM
same,IC (TGI),HT-29,6.46 µM
same,GI50,LNCaP,0.67 µM
same,CC50,LNCaP,3.87 µM
same,IC (TGI),LNCaP,1.67 µM
same,GI50,PANC-1,2.47 µM
same,CC50,PANC-1,7.78 µM
same,IC (TGI),PANC-1,7.78 µM
same,GI50,IGROV,1.07 µM
same,CC50,IGROV,6.26 µM
same,IC (TGI),IGROV,2.58 µM
same,CC50,[1],2.96 µM
same,GI50,H-MEC-1,0.213 µM
same,IC (TGI),H-MEC-1,0.452 µM
same,GI50,A-549,1.65 µM
same,CC50,A-549,5.87 µM
same,IC (TGI),A-549,3.11 µM
same,GI50,K-562,0.536 µM
same,CC50,K-562,7.78 µM
same,IC (TGI),K-562,2.47 µM
same,GI50,LoVo,0.703 µM
same,CC50,LoVo,4.41 µM
same,IC (TGI),LoVo,1.82 µM
same,GI50,LoVo-Dox,1.76 µM
same,CC50,LoVo-Dox,7.78 µM
same,IC (TGI),LoVo-Dox,4.78 µM
same,GI50,SK-BR-3,1.87 µM
same,CC50,SK-BR-3,7.53 µM
same,IC (TGI),SK-BR-3,3.75 µM
COc1cc(-c2c3n(c4c(=O)oc5cc(OC(=O)[C@H](C)N)c(OC)cc5c24)CCc2c-3cc(OC)c(OC)c2OC(=O)[C@H](C)N)ccc1OC(=O)[C@H](C)N [Compound 96],GI50,SKOV-3,4.2 µM
same,CC50,SKOV-3,9.2 µM
same,IC (TGI),SKOV-3,9.2 µM
same,GI50,IGROV-ET,2.69 µM
same,CC50,IGROV-ET,9.2 µM
same,IC (TGI),IGROV-ET,5.6 µM
same,GI50,DU-145,4.26 µM
same,CC50,DU-145,9.2 µM
same,IC (TGI),DU-145,9.2 µM
same,GI50,SK-MEL-28,2.14 µM
same,CC50,SK-MEL-28,9.18 µM
same,IC (TGI),SK-MEL-28,4.43 µM
same,GI50,HT-29,9.2 µM
same,CC50,HT-29,9.2 µM
same,IC (TGI),HT-29,9.2 µM
same,GI50,PANC-1,1.68 µM
same,CC50,PANC-1,9.2 µM
same,IC (TGI),PANC-1,5.65 µM
same,GI50,IGROV,1.2 µM
same,CC50,IGROV,7.54 µM
same,IC (TGI),IGROV,3.01 µM
same,CC50,[1],9.2 µM
same,GI50,H-MEC-1,0.381 µM
same,IC (TGI),H-MEC-1,9.2 µM
same,GI50,A-549,4.97 µM
same,CC50,A-549,9.2 µM
same,IC (TGI),A-549,9.2 µM
same,GI50,K-562,1.63 µM
same,CC50,K-562,9.2 µM
same,IC (TGI),K-562,4.43 µM
same,GI50,LoVo,2.28 µM
same,CC50,LoVo,9.2 µM
same,IC (TGI),LoVo,9.2 µM
same,GI50,LoVo-Dox,0.563 µM
same,CC50,LoVo-Dox,9.2 µM
same,IC (TGI),LoVo-Dox,2.07 µM
same,GI50,SK-BR-3,0.417 µM
same,CC50,SK-BR-3,5.47 µM
same,IC (TGI),SK-BR-3,1.86 µM
COc1cc(-c2c3c4cc(OC)c(OC(=O)[C@H](C)NC(=O)OC(C)(C)C)cc4oc(=O)c3n3ccc4c(OC(=O)[C@H](C)NC(=O)OC(C)(C)C)c(OC)c(OC)cc4c23)ccc1OC(=O)[C@H](C)NC(=O)OC(C)(C)C [Compound 97],GI50,SKOV-3,6.01 µM
same,CC50,SKOV-3,9.59 µM
same,IC (TGI),SKOV-3,9.59 µM
same,GI50,IGROV-ET,0.678 µM
same,CC50,IGROV-ET,9.59 µM
same,IC (TGI),IGROV-ET,3.33 µM
same,GI50,DU-145,4.13 µM
same,CC50,DU-145,9.59 µM
same,IC (TGI),DU-145,9.59 µM
same,GI50,SK-MEL-28,0.262 µM
same,CC50,SK-MEL-28,9.59 µM
same,IC (TGI),SK-MEL-28,4.71 µM
same,GI50,HT-29,9.59 µM
same,CC50,HT-29,9.59 µM
same,IC (TGI),HT-29,9.59 µM
same,GI50,PANC-1,4.47 µM
same,CC50,PANC-1,9.59 µM
same,IC (TGI),PANC-1,9.59 µM
same,GI50,IGROV,0.186 µM
same,CC50,IGROV,7.54 µM
same,IC (TGI),IGROV,1.94 µM
same,CC50,[1],9.59 µM
same,GI50,H-MEC-1,0.0337 µM
same,IC (TGI),H-MEC-1,0.0959 µM
same,GI50,A-549,9.59 µM
same,CC50,A-549,9.59 µM
same,IC (TGI),A-549,9.59 µM
same,GI50,K-562,3.2 µM
same,CC50,K-562,9.59 µM
same,IC (TGI),K-562,6.86 µM
same,GI50,LoVo,5.28 µM
same,CC50,LoVo,9.59 µM
same,IC (TGI),LoVo,9.59 µM
same,GI50,LoVo-Dox,5.29 µM
same,CC50,LoVo-Dox,9.59 µM
same,IC (TGI),LoVo-Dox,9.59 µM
same,GI50,SK-BR-3,1.23 µM
same,CC50,SK-BR-3,9.59 µM
same,IC (TGI),SK-BR-3,3.58 µM
